Source: patent publication US6723751B1, “Crystalline forms of the sodium salt of 5-chloro-2-methoxy-N-(2-(4-methoxy-3-methylaminothiocarbonylaminosulfonylpenyl)ethyl)benzamide” (Aventis Pharma Deutschland GmbH, priority 1999, dated 2004)

How the values were obtained:
[1] = Hygroscopicity investigations: water vapor sorption (DVS-1 Dynamic Vapour Sorption Analyser); format: physicochemical; settings: 25° C., equilibrium
Protocol: The water vapor sorption of the crystal modifications according to the invention was investigated at a temperature of 25° C. on substance samples of about 12 to 16 mg using a DVS-1 Dynamic Vapour Sorption Analyser from Surface Measurement Systems. The measurements were carried out in a nitrogen atmosphere whose relative humidity was altered stepwise. The weight of the sample was recorded at each relative humidity after establishment of the equilibrium, which is when a change in weight of the sample no longer took place. For a series of increasing relative humidities, the water contents of the substance samples, which were determined from the change in weight compared with the starting weights, are indicated in percent.

[2] = Solubility investigations in water; format: physicochemical; settings: for Total amount of substance that could be dissolved: in 2 ml of water at 20° C. to 25° C.; for Time to go into solution: portions of 50 to 100 mg stirred into 2.0 ml of water at room temperature
Protocol: The substance was introduced with stirring into 2.0 ml of water at room temperature in portions of 50 to 100 mg. It went into solution in the course of a few minutes with initial clumping. In this way, a total of up to 500 mg of substance could be dissolved in 2 ml of water at 20° C to 25° C.
100 mg of the substance were introduced into 2.0 ml of water, a readily stirrable suspension being formed. […] On warming the suspension to 35° C. to 37° C., the substance went into solution within 20 minutes.
The substance was introduced with stirring into 2.0 ml of water at room temperature in portions of 50 to 100 mg. After introduction, the substance was initially present as a granular, readily stirrable solid that then went into solution in the course of a few minutes. In this way, a total of up to 360 mg of substance could be dissolved in 2 ml of water at 20° C. to 25° C.
The substance was introduced with stirring into 2.0 ml of water at room temperature in portions of 50 to 100 mg. It went into solution in the course of a few minutes with initial clumping. In this way, a total of up to 620 mg of substance could be dissolved in 2 ml of water at 20° C. to 25° C.

CNC(=S)[N-]S(=O)(=O)c1cc(CCNC(=O)c2cc(Cl)ccc2OC)ccc1OC.[Na+] [Crystal Modification 1, sodium salt of 5-chloro-2-methoxy-N-(2-(4-methoxy-3-methylaminothiocarbonylaminosulfonylphenyl)ethyl)benzamide]
Water content ([1]; relative humidity 18.4 %): 0.30% | Water content ([1]; relative humidity 39.6 %): 0.65% | Water content ([1]; relative humidity 61.0 %): 1.39% | Water content ([1]; relative humidity 81.1 %): 2.04% | Water content ([1]; relative humidity 91.0 %): 5.72% | Total amount of substance that could be dissolved [2]: up to 500 mg | Time to go into solution [2]: a few minutes

CNC(=S)[N-]S(=O)(=O)c1cc(CCNC(=O)c2cc(Cl)ccc2OC)ccc1OC.[Na+] [Crystal Modification 4, sodium salt of 5-chloro-2-methoxy-N-(2-(4-methoxy-3-methylaminothiocarbonylaminosulfonylphenyl)ethyl)benzamide]
Total amount of substance that could be dissolved [2]: up to 620 mg | Time to go into solution [2]: a few minutes

CNC(=S)[N-]S(=O)(=O)c1cc(CCNC(=O)c2cc(Cl)ccc2OC)ccc1OC.[Na+] [Crystal Modification 3, sodium salt of 5-chloro-2-methoxy-N-(2-(4-methoxy-3-methylaminothiocarbonylaminosulfonylphenyl)ethyl)benzamide]
Water content ([1]; relative humidity 18.7 %): 0.06% | Water content ([1]; relative humidity 40.1 %): 0.21% | Water content ([1]; relative humidity 61.4 %): 0.38% | Water content ([1]; relative humidity 81.3 %): 0.65% | Water content ([1]; relative humidity 91.0 %): 0.79% | Total amount of substance that could be dissolved [2]: up to 360 mg | Time to go into solution [2]: a few minutes

CNC(=S)[N-]S(=O)(=O)c1cc(CCNC(=O)c2cc(Cl)ccc2OC)ccc1OC.[Na+] [Crystal Modification 2, sodium salt of 5-chloro-2-methoxy-N-(2-(4-methoxy-3-methylaminothiocarbonylaminosulfonylphenyl)ethyl)benzamide]
Water content ([1]; relative humidity 18.5 %): 0.04% | Water content ([1]; relative humidity 39.9 %): 0.06% | Water content ([1]; relative humidity 61.5 %): 0.08% | Water content ([1]; relative humidity 81.9 %): 0.10% | Water content ([1]; relative humidity 91.7 %): 0.13% | State of solution on cooling ([2]; 100 mg in 2.0 ml of water, cooled from 35° C. to 37° C. to 20° C. to 25° C.): remained clearly dissolved | Time to go into solution on warming ([2]; 100 mg in 2.0 ml of water, suspension warmed to 35° C. to 37° C.): ≤ 20 min | Dissolution of 100 mg in 2.0 ml of water ([2]; after stirring at 20° C. to 25° C. for 2 h): a clear solution was still not formed
